Data taken from US20230398130A1, “METHODS AND COMPOSITIONS FOR DIFFERENTIATING STEM CELLS” (Massachusetts Institute of Technology, priority 2020, published 2023).

Key:
ISC-enriched organoids [1] = test: Primary screen, 384-well 2.5-D organoid differentiation (ENR+CD, 6 days): basal lysozyme secretion (LYZ.NS); format: cell-based, murine; details: for Dose.FC.LYZ.NS: ENR+CD, 6 days, FC vs plate median; for Z.LYZ.NS: standard z score of FC
Excerpt: (§1) High-throughput screening.

ISC-enriched organoids [2] = test: Primary screen, 384-well 2.5-D organoid differentiation (ENR+CD, 6 days): carbachol-induced lysozyme secretion (LYZ.S); format: cell-based, murine; details: ENR+CD, 6 days, FC vs plate median
Excerpt: as §1

ISC-enriched organoids [3] = test: Primary screen, 384-well 2.5-D organoid differentiation (ENR+CD, 6 days, Target Selective Inhibitor Library, vs whole-plate median): ATP (CellTiter-Glo 3D, CTG); details: for Dose.FC.CTG: ENR+CD, 6 days, FC vs plate median; for Z.CTG: standard z score of FC

Compound	Dose.FC.LYZ.NS (ISC-enriched organoids [1]; Dose 0.08 uM) [log 2 fold change]	Z.LYZ.NS (ISC-enriched organoids [1]; Dose 0.08 uM)	Dose.FC.LYZ.NS (ISC-enriched organoids [1]; Dose 0.40 uM) [log 2 fold change]	Z.LYZ.NS (ISC-enriched organoids [1]; Dose 0.40 uM)	Dose.FC.LYZ.NS (ISC-enriched organoids [1]; Dose 2.00 uM) [log 2 fold change]	Z.LYZ.NS (ISC-enriched organoids [1]; Dose 2.00 uM)	Dose.FC.LYZ.NS (ISC-enriched organoids [1]; Dose 10.00 uM) [log 2 fold change]	Z.LYZ.NS (ISC-enriched organoids [1]; Dose 10.00 uM)	Dose.FC.LYZ.S (ISC-enriched organoids [2]; Dose 0.08 uM) [log 2 fold change]	Dose.FC.LYZ.S (ISC-enriched organoids [2]; Dose 0.40 uM) [log 2 fold change]	Dose.FC.LYZ.S (ISC-enriched organoids [2]; Dose 2.00 uM) [log 2 fold change]	Dose.FC.LYZ.S (ISC-enriched organoids [2]; Dose 10.00 uM) [log 2 fold change]	Dose.FC.CTG (ISC-enriched organoids [3]; Dose 0.08 uM) [log 2 fold change]	Z.CTG (ISC-enriched organoids [3]; Dose 0.08 uM)	Dose.FC.CTG (ISC-enriched organoids [3]; Dose 0.40 uM) [log 2 fold change]	Z.CTG (ISC-enriched organoids [3]; Dose 0.40 uM)	Dose.FC.CTG (ISC-enriched organoids [3]; Dose 2.00 uM) [log 2 fold change]	Z.CTG (ISC-enriched organoids [3]; Dose 2.00 uM)	Dose.FC.CTG (ISC-enriched organoids [3]; Dose 10.00 uM) [log 2 fold change]	Z.CTG (ISC-enriched organoids [3]; Dose 10.00 uM)
O=c1[nH]c2ccc(Cl)cc2c(N[C@@H]2CN3CCC2CC3)c1-c1nc2ccccc2[nH]1 [CHIR-124]	−0.155	−1.352	−0.240	−2.090	−0.220	−1.916	−0.140	−1.223	−0.267	−0.339	−0.352	−0.332	−0.256	−0.612	−0.853	−2.038	−0.861	−2.057	−1.555	−3.714
Cc1[nH]c2ccccc2c1CCNC(=O)c1cccs1 [CK-636]	0.039	0.336	−0.049	−0.427	−0.066	−0.573	−0.108	−0.944	0.080	−0.013	0.072	−0.103	0.202	0.483	−0.004	−0.010	−0.201	−0.479	−0.169	−0.404
C=CC(=O)Nc1cccc(Nc2nc(Nc3ccc(Oc4ccnc(C(=O)NC)c4)cc3)ncc2F)c1 [CNX-774]	0.075	0.655	−0.008	−0.067	0.158	1.378	−0.043	−0.376	0.014	−0.027	0.082	−0.089	0.259	0.619	0.177	0.422	−0.109	−0.260	−0.081	−0.194
CN(C)C(=O)[C@H](O)[C@H](Cc1ccccc1)NC(=O)c1cc2cc(Cl)ccc2[nH]1 [CP-91149]	0.177	1.538	−0.033	−0.289	0.028	0.245	−0.057	−0.498	0.186	0.055	−0.121	−0.097	0.031	0.073	−0.023	−0.056	−0.098	−0.234	−0.100	−0.239
O=C(O)c1cc2cccc([N+](=O)[O-])c2[nH]1 [CRT0044876]	0.016	0.135	0.034	0.298	0.047	0.408	0.032	0.278	−0.002	0.055	0.014	−0.061	−0.171	−0.410	−0.040	−0.096	−0.081	−0.192	−0.099	−0.237
